In patent US20220313724A1, “COMPOSITIONS FOR INTRATUMORAL ADMINISTRATION AND RELATED METHODS” (HIGHLIGHT THERAPEUTICS, S.L., priority 2021, published 2022):

Tests used:
MC38 or B16.OVA cells = assay: Single-agent repeated intratumoral injections in mice bearing bilateral tumors; assay type: in vivo, mouse; conditions: injected tumor
Excerpt: Mouse tumor models. […] Female mice were used at 8-12 weeks of age and housed under specific pathogen-free conditions. The abscopal effect was studied by injecting 4×10^5 MC38 or B16.OVA cells subcutaneously (s.c.) into the right flank of C57BL/6 mice, whereas the left flank received an injection (s.c.) of 2×10^5 (MC38) or 1.25×10^5 (B16.OVA) cancer cells. When right tumors reached a tumor volume of 80-100 mm^3 (approximately one week after tumor inoculation), mice were randomized into different treatment groups.
Evaluation of compounds. […] Control mice received intratumoral injections of PBS containing 5% glucose and/or 5% DMSO (vehicle) as indicated. Treated and untreated tumors were measured twice a week with calipers and the volume was calculated (length×width^2/2). […] When right and left tumors reached a diameter of 80-100 mm, mice were randomized to three groups. […] The control, untreated third-party tumor was untreated in all groups.

[1] = system: circulating cytokines or chemokines; assay: Circulating cytokines or chemokines after intratumoral treatment; assay type: in vivo, mouse; conditions: systemic

SMILES: Cc1ccc2c(=O)c3cccc(CC(=O)O)c3oc2c1C [DMXAA, 5,6-dimethylxanthenone-4-acetic acid]
- response of directly injected tumors to the treatment (MC38 or B16.OVA cells): remarkably responded
- circulating type I Interferons, IL-12, IL-18, TNFalpha (TNFα) and CXCL10 [1]: either did not cause systemic circulating elevations or only enhanced those observed upon treatment with BO-112
